Results: patent publication US8633184B2, “Benzoazepin-oxy-acetic acid derivatives as PPAR-delta agonists used for the increase of HDL-C, lower LDL-C and lower cholesterol” (Janssen Pharmaceutica N.V., priority 2006, dated 2014)
“And” between values parts separate entries of the source, which are not always exact repeats. Equal entries are not always repeated.

What was measured:
Assay type in all cases: cell-based
Conditions in all cases: 18-24 hrs
PPARα = target: T1, PPARα (Homo sapiens, UniProt Q07869); assay: Transfection assay, GAL4-PPARα LBD luciferase reporter in HEK293 cells
T1 construct: expressed in transfected cells; host or cells: HEK293
T1 sequence (Q07869 239-466 limits assumed): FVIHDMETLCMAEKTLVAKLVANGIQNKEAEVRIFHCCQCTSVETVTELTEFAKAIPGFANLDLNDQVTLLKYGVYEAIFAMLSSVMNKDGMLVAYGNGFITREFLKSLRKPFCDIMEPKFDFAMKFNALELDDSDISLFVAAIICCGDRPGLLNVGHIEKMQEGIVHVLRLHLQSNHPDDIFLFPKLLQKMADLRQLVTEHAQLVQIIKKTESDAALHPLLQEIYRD
Experimental: (§1) HEK293 cells were grown in DMEM/F12 medium supplemented with 10% FBS and glutamine (Invitrogen) and incubated in a 5% CO2 incubator at 37° C. The cells were co-transfected using DMRIE-C reagent (Invitrogen) in serum free medium (Opti-MEM, Invitrogen) with two mammalian expression plasmids, one containing the DNA sequence coding for the ligand binding domains of either PPARα, γ or δ fused to the yeast GAL4 DNA binding domain and the other containing the promoter sequence of the yeast GAL4 (UAS) fused to the firefly luciferase cDNA reporter. The next day, the medium was changed to DMEM/F12 medium supplemented with 5% charcoal treated serum (Hyclone) and glutamine. After 6 hrs the cells were trypsinized and seeded at a density of 50,000 cells/well into 96 well plates and incubated overnight as above. The cells were then treated with test compounds or vehicle and incubated for 18-24 hrs as above. Luciferase reporter activity was measured using the Steady-Glo Luciferase Assay Kit from Promega. DMRIE-C Reagent was purchased from GIBCO Cat. No. 10459-014. OPTI-MEM I Reduced Serum Medium was purchased from GIBCO (Cat. No. 31985). Steady-Glo Luciferase Assay Kit was purchased from Promega (Part #E254B).
(§2) A variety of example compounds have been made and tested, with a range of in vitro results. Below, in Table 2, are representative compounds and data; in some cases, where multiple EC50's are shown, multiple measurements were taken. Naturally, different compounds in Formula (I) may have not activities identical to any one compound below.

PPARγ = target: T2, PPARγ (Homo sapiens, UniProt P37231); assay: Transfection assay, GAL4-PPARγ LBD luciferase reporter in HEK293 cells
T2 construct: expressed in transfected cells; host or cells: HEK293
T2 sequence (P37231 238-503 limits assumed): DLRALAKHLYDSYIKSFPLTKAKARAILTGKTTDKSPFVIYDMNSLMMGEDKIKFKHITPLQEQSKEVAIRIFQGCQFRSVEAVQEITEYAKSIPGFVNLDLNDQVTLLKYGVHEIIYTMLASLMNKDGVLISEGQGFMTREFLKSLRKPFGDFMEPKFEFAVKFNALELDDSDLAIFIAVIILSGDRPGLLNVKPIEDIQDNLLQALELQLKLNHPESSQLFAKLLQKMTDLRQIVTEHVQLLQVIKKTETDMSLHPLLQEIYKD
Experimental: as §1, §2

PPARδ = target: T3, PPARδ (Homo sapiens, UniProt Q03181); assay: Transfection assay, GAL4-PPARδ LBD luciferase reporter in HEK293 cells
T3 construct: expressed in transfected cells; host or cells: HEK293
T3 sequence (Q03181 211-439 limits assumed): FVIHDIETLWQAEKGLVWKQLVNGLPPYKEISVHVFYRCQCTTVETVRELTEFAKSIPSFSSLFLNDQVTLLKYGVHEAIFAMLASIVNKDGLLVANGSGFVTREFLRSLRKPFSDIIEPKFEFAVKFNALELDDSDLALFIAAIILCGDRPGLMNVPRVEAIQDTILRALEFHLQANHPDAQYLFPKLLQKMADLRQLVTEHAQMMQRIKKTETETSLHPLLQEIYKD
Experimental: as §1, §2

Question: What does the source list for `Cc1cc(-c2ccc(C(F)(F)F)cc2)sc1CN1CCc2ccc(OCC(=O)O)cc2CC1` [compound 13]?
Answer: EC50 (PPARα): > 3 µM; EC50 (PPARγ): > 3 µM; EC50 (PPARδ): 174 nM and 193 nM

Question: Which EC50 (PPARα) does the source give for `Cc1cc(-c2ccc(C(F)(F)F)cc2)oc1CN1CCc2ccc(OCC(=O)O)cc2CC1` [compound 36] here?
Answer: > 3 µM

Question: What about the EC50 (PPARγ) of the same molecule?
Answer: > 3 µM

Question: And the EC50 (PPARδ)?
Answer: 29.2 nM

Question: Which EC50 (PPARα) does the source give for `O=C(O)COc1ccc2c(c1)CCN(Cc1ccc(-c3ccc(Cl)cc3)o1)CC2` [compound 35] here?
Answer: > 3 µM

Question: What about the EC50 (PPARγ) of the same molecule?
Answer: > 3 µM

Question: And the EC50 (PPARδ)?
Answer: 169 nM

Question: With `CC(C)(Oc1ccc2c(c1)CCN(Cc1nc(-c3ccc(C(F)(F)F)cc3)ns1)CC2)C(=O)O` [compound 4] as the molecule, how does the EC50 (PPARα) read?
Answer: > 3 µM

Question: What about the EC50 (PPARγ) of the same molecule?
Answer: > 3 µM

Question: And the EC50 (PPARδ)?
Answer: 95.2 nM

Question: Which results are given for `O=C(O)COc1ccc2c(c1)CCN(Cc1ccc(-c3ccc(OC(F)(F)F)cc3)o1)CC2` [compound 34]?
Answer: EC50 (PPARα): > 3 µM; EC50 (PPARγ): > 3 µM; EC50 (PPARδ): 373 nM

Question: With `Cc1c(-c2ccc(C(F)(F)F)cc2)csc1CN1CCc2ccc(OCC(=O)O)cc2CC1` [compound 15] as the molecule, how does the EC50 (PPARα) read?
Answer: > 3 µM

Question: What about the EC50 (PPARγ) of the same molecule?
Answer: > 3 µM

Question: And the EC50 (PPARδ)?
Answer: 104 nM

Question: How did the EC50 (PPARα) turn out when `O=C(O)C1(Oc2ccc3c(c2)CCN(Cc2ccc(-c4ccc(C(F)(F)F)cc4)s2)CC3)CC1` [compound 37] was run?
Answer: > 3 µM

Question: And the EC50 (PPARγ)?
Answer: > 3 µM

Question: What about the EC50 (PPARδ) of the same molecule?
Answer: 5.3 nM

Question: For `O=C(O)COc1ccc2c(c1)CCN(Cc1ccc(-c3ccc(OC(F)(F)F)cc3)s1)CC2` [compound 32], which EC50 (PPARα) is on record?
Answer: > 3 µM

Question: And the EC50 (PPARγ)?
Answer: > 3 µM

Question: What about the EC50 (PPARδ) of the same molecule?
Answer: 157 nM

Question: `COc1ccc(-c2ccc(CN3CCc4ccc(OCC(=O)O)cc4CC3)o2)cc1` [compound 44] was tested. Which EC50 (PPARα) did it give?
Answer: > 3 µM

Question: What about the EC50 (PPARγ) of the same molecule?
Answer: > 3 µM

Question: And the EC50 (PPARδ)?
Answer: > 1000 nM

Question: `CC(c1cnc(-c2ccc(C(F)(F)F)cc2)s1)N1CCc2ccc(OCC(=O)O)cc2CC1` (stereo not drawn) [compound 29] was tested. Which EC50 (PPARα) did it give?
Answer: > 3 µM

Question: And the EC50 (PPARγ)?
Answer: 0.622 µM

Question: And the EC50 (PPARδ)?
Answer: < 3 nM

Question: For `O=C(O)COc1ccc2c(c1)CCN(Cc1nc(-c3ccc(C(F)(F)F)cc3)ns1)CC2` [compound 3], which EC50 (PPARα) is on record?
Answer: > 3 µM

Question: And the EC50 (PPARγ)?
Answer: > 3 µM

Question: And the EC50 (PPARδ)?
Answer: 143 nM

Question: What does the source list for `Cc1nc(-c2ccc(C(F)(F)F)cc2)oc1CN1CCc2ccc(OCC(=O)O)cc2CC1` [compound 18]?
Answer: EC50 (PPARα): > 3 µM; EC50 (PPARγ): > 3 µM; EC50 (PPARδ): 174 nM

Question: How did the EC50 (PPARα) turn out when `O=C(O)COc1ccc2c(c1)CCN(CCc1ccc(-c3ccc(C(F)(F)F)cc3)s1)CC2` [compound 22] was run?
Answer: > 3 µM

Question: And the EC50 (PPARγ)?
Answer: > 3 µM

Question: What about the EC50 (PPARδ) of the same molecule?
Answer: > 3000 nM

Question: How did the EC50 (PPARα) turn out when `O=C(O)COc1ccc2c(c1)CCN(Cc1cncc(-c3ccc(C(F)(F)F)cc3)n1)CC2` [compound 42] was run?
Answer: > 3 µM

Question: What about the EC50 (PPARγ) of the same molecule?
Answer: > 3 µM

Question: What about the EC50 (PPARδ) of the same molecule?
Answer: > 1000 nM

Question: Which EC50 (PPARα) does the source give for `Cc1nc(-c2ccc(C(F)(F)F)cc2)sc1CN1CCc2ccc(OCC(=O)O)cc2CC1` [compound 5] here?
Answer: > 3 µM

Question: What about the EC50 (PPARγ) of the same molecule?
Answer: > 3 µM

Question: And the EC50 (PPARδ)?
Answer: 51.6 nM

Question: What does the source list for `CCC(c1ccc(-c2ccc(C(F)(F)F)cc2)s1)N1CCc2ccc(OCC(=O)O)cc2CC1` (stereo not drawn) [compound 30]?
Answer: EC50 (PPARα): > 3 µM; EC50 (PPARγ): > 3 µM; EC50 (PPARδ): 0.9 nM

Question: With `Cc1nc(-c2ccc(C(F)(F)F)cc2)oc1CN1CCc2ccc(OC(C)(C)C(=O)O)cc2CC1` [compound 19] as the molecule, how does the EC50 (PPARα) read?
Answer: > 3 µM

Question: What about the EC50 (PPARγ) of the same molecule?
Answer: > 3 µM

Question: And the EC50 (PPARδ)?
Answer: 231 nM

Question: How did the EC50 (PPARα) turn out when `CC(C)(Oc1ccc2c(c1)CCN(Cc1cnn(-c3ccc(C(F)(F)F)cc3)c1)CC2)C(=O)O` [compound 21] was run?
Answer: > 3 µM

Question: What about the EC50 (PPARγ) of the same molecule?
Answer: > 3 µM

Question: What about the EC50 (PPARδ) of the same molecule?
Answer: 422 nM

Question: What does the source list for `O=C(O)COc1ccc2c(c1)CCN(Cc1ccnc(-c3ccc(C(F)(F)F)cc3)n1)CC2` [compound 41]?
Answer: EC50 (PPARα): > 3 µM; EC50 (PPARγ): > 3 µM; EC50 (PPARδ): > 1000 nM

Question: Which results are given for `O=C(O)COc1ccc2c(c1)CCN(CCc1ccc(-c3ccc(C(F)(F)F)cc3)o1)CC2` [compound 45]?
Answer: EC50 (PPARα): > 3 µM; EC50 (PPARγ): > 3 µM; EC50 (PPARδ): > 1000 nM

Question: What does the source list for `CC(c1ccc(-c2ccc(C(F)(F)F)cc2)s1)N1CCc2ccc(OCC(=O)O)cc2CC1` (single isomer, unassigned) [27a]?
Answer: EC50 (PPARα): > 3 µM; EC50 (PPARγ): > 1 µM; EC50 (PPARδ): 0.92 nM
